One data set deals with HL-60 cells. The experiment in a line: Cell growth inhibition (resazurin, 48 hours), HL-60. From the text: (§1) The DNA binding agent Mitoxantrone was included as a control, as HL-60/MX2 cells are reported to be resistant to this chemotherapeutic agent (Harker W. G. et al. 1989).
For orientation: Alamar Blue is a resazurin reagent that responds to reducing activity.

The next data set deals with MDA-MB-231 cells. The experiment in a line: Cell growth inhibition (resazurin, 48 hours), MDA-MB-231. Type of data set: cell-based. The settings on record: Homo sapiens.
For a further data set, the system named is MES-SA/Dx5 cells. Kind of data set: cells. The settings on record: for Fold change: ratio of EC50 values (MES-SA/Dx5:MES-SA).
A further data set has as its system NCI-H292 cells. The experiment in a line: Cell growth inhibition (resazurin, 48 hours), NCI-H292. Type of data set: cell-based, human.
The subject of the next data set is MES-SA cells. The experiment in a line: Cell growth inhibition (resazurin, 48 hours), MES-SA.
Data set [1] addresses T1, trypsin-like activity of purified rabbit 20S proteasomes (Oryctolagus cuniculus, UniProt G1SWK8).
T1 sequence (G1SWK8 1-271): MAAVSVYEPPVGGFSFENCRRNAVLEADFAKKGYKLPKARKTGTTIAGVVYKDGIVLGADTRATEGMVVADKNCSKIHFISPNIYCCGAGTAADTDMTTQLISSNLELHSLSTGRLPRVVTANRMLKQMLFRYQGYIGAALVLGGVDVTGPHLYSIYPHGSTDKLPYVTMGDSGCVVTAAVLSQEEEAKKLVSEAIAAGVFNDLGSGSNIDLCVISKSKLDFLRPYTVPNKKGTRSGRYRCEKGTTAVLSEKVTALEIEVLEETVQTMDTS
The experiment in a line: biochemical.

A further data set concerns HL-60/MX2 cells. The experiment in a line: cells. The following applies: for Fold change: ratio of EC50 values (HL-60/MX2:HL-60).
Text: as §1

The target of data set [2] is T1, trypsin-like activity of purified rabbit 20S proteasomes. The settings on record: under the conditions tested.
Another data set has as its system OVCAR-3 cells. Kind of data set: Cell growth inhibition (resazurin, 48 hours), OVCAR-3. Type of data set: cell-based, human.
The next data set relates to U266 cells. The experiment in a line: Cell growth inhibition (resazurin, 48 hours), U266.
Data set [3] deals with T2, chymotrypsin-like activity of rabbit muscle 20S proteasomes (Oryctolagus cuniculus, UniProt G1T4Q9).
T2 sequence (G1T4Q9 1-263): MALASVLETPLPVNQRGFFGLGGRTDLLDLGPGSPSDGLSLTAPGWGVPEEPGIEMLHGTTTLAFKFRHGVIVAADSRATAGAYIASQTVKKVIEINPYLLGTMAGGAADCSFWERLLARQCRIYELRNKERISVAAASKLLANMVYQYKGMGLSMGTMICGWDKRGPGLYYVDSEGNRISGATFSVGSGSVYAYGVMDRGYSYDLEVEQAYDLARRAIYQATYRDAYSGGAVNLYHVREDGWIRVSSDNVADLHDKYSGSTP
The experiment in a line: Inhibition of chymotrypsin-like activity of purified rabbit muscle 20S proteasome (suc-LLVY-AMC). The class given is biochemical.

The mark [4] stands for this setting: Homo sapiens, HL-60, read-out: EC50 (nM) HL-60, Table 17.
The mark [5] stands for this setting: read-out: EC50 (nM) HL-60, Table 17.
Where [6] appears, read: Homo sapiens, MES-SA/Dx5, read-out: EC50 (nM) MES-SA/Dx5, Table 16.
The mark [7] stands for this setting: read-out: EC50 (nM) MES-SA/Dx5, Table 16.
Setting [8] is: Homo sapiens, NCI-H292, Table 13, NCI-H292.
[9] abbreviates: Homo sapiens, MES-SA, read-out: EC50 (nM) MES-SA, Table 16.
[10] abbreviates: read-out: EC50 (nM) MES-SA, Table 16.
Where [11] appears, read: Homo sapiens, HL60/MX2, read-out: EC50 (nM) HL-60/MX2, Table 17.
[12] abbreviates: read-out: EC50 (nM) HL-60/MX2, Table 17.
Where [13] appears, read: Homo sapiens, OVCAR-3, Table 13, OVCAR-3.
The mark [14] stands for this setting: Homo sapiens, U-266, Table 13, U266.
[15] abbreviates: Homo sapiens, U-266, read-out: U266 EC50 (nM), Table 15, mean EC50.
The mark [16] stands for this setting: Table 3, mean EC50, purified rabbit 20S proteasomes, read-out: EC50 Values, Chymotrypsin-like.

The source of these data is patent publication US20050049294A1, “Methods of using [3.2.0] heterocyclic compounds and analogs thereof” (priority 2003, published 2005).

Several values for one entry are separate records, joined by “and”; a condition that tells them apart may be missing. Equal values may be shown once. Read-outs that look alike come from different tables or passages of the source.

As for `C[C@@]12OC(=O)[C@]1([C@@H](O)C1CCCCC1)NC(=O)[C@@H]2CCCl` [Formula II-2], the EC50 in the data set with HL-60 cells (setting [4]) turned out to be 237 nM; with HL-60 cells (setting [5]), 176 nM; in the data set on MDA-MB-231 cells (MDA-MB-231), 121 ± 23 nM; in the data set on MES-SA/Dx5 cells (setting [6]) it was 220 nM; in the data set on MES-SA/Dx5 cells (setting [7]), 138 nM; in the data set with NCI-H292 cells (setting [8]), 322 nM. Also, the EC50 with MES-SA cells (setting [9]) was 193 nM; with MES-SA cells (setting [10]) it was 155 nM; in data set [1] it was 0.23 µM; with HL-60/MX2 cells (setting [11]) it was 142 nM; in the data set on HL-60/MX2 cells (setting [12]), 133 nM; in the data set with OVCAR-3 cells (setting [13]) it was 188 nM. Moreover, the EC50 in the data set on OVCAR-3 cells (Table 13, OVCAR-3) came out at 251 nM; in the data set on U266 cells (setting [14]), 32 nM; with U266 cells (setting [15]), 36 nM; in data set [3] (EC50, chymotrypsin-like activity of the proteasome) it was 0.0185 µM; in [3] (EC50 Values, Chymotrypsin-like), 0.018 µM. Besides, the Fold change with MES-SA/Dx5 cells (Table 16) was determined as 1.0 fold; in the data set with HL-60/MX2 cells (Table 17), 0.7 fold. Moreover, the “inhibit the trypsin-like activity of the 20S proteasome” value (“inhibit the trypsin-like activity” below) in data set [2] was “able to inhibit”.

Regarding `C[C@@]12OC(=O)[C@]1([C@@H](O)C1CCCCC1)NC(=O)[C@@H]2CCBr` [Formula II-4], the EC50 in the data set on HL-60 cells (setting [4]) was determined as 111 nM; with MDA-MB-231 cells (MDA-MB-231), 114 ± 4 nM; with MES-SA/Dx5 cells (setting [6]), 178 nM; with MES-SA/Dx5 cells (setting [7]) it was 93 nM; in the data set on NCI-H292 cells (setting [8]), 192 nM; in the data set with MES-SA cells (setting [9]), 163 nM. Moreover, the EC50 in [1] was 0.109 µM; in the data set on HL-60/MX2 cells (setting [11]), 103 nM; in the data set on HL-60/MX2 cells (setting [12]), 97 nM; in the data set with OVCAR-3 cells (setting [13]) it was greater than 6320 nM; with U266 cells (setting [14]), 39 nM; in the data set with U266 cells (setting [15]) it was 36 nM. For the same compound, the EC50 with U266 cells (Table 13, U266) was found to be 34 nM; in data set [3] (setting [16]) it was 0.0142 µM; in data set [3] (representative experiment, Example 44 (FIG. 46, 47), read-out: EC50, chymotrypsin-like activity of the proteasome), 0.015 µM. Further, the Fold change was 0.9 fold with MES-SA/Dx5 cells (Table 16) and 0.8 fold with HL-60/MX2 cells (Table 17). Further, the “inhibit the trypsin-like activity” value in data set [2] was “able to inhibit”.

Take `C[C@@]12OC(=O)[C@]1([C@@H](O)[C@@H]1C=CCCC1)NC(=O)[C@@H]2CCCl` [Formula II-16, Salinosporamide A]: the EC50 in the data set with HL-60 cells (Homo sapiens, HL-60, Table 8, HL-60) worked out at 27 nM; with HL-60 cells (Table 8, HL-60), 30 nM; with MDA-MB-231 cells (MDA-MB-231, 48 h), 67 nM; with MDA-MB-231 cells (MDA-MB-231, 48 h, read-out: EC50 (nM), mean ± SD) it was 87 ± 40 nM; with MES-SA/Dx5 cells (Homo sapiens, MES-SA/Dx5, read-out: EC50 (nM), mean ± SD), 23 ± 1 nM; in the data set on NCI-H292 cells (Homo sapiens, NCI-H292, 48 h) it was 97 nM. Also, the EC50 with NCI-H292 cells (Homo sapiens, NCI-H292, 48 h, read-out: EC50 (nM), mean ± SD) stood at 66 ± 29 nM; in the data set with MES-SA cells (Homo sapiens, MES-SA, read-out: EC50 (nM), mean) it was 20 ± 5 nM; with HL-60/MX2 cells (Homo sapiens, HL60/MX2, Table 8, HL-60/MX2), 28 nM; in the data set with HL-60/MX2 cells (Table 8, HL-60/MX2), 25 nM; in the data set on OVCAR-3 cells (Homo sapiens, OVCAR-3, 48 h) it was 69 nM; with OVCAR-3 cells (Homo sapiens, OVCAR-3, 48 h, read-out: EC50 (nM), mean ± SD), 49 ± 31 nM. The EC50 in the data set with U266 cells (Homo sapiens, U-266, 48 h, read-out: EC50 (nM), mean ± SD) turned out to be 4.7 ± 0.7 nM; in the data set on U266 cells (Homo sapiens, U-266, read-out: U266 EC50 (nM)), 4.1 nM. Besides, the “% cytotoxicity” value in the data set on HL-60 cells (Table 8, HL-60) was 88% and 91%; in the data set with HL-60/MX2 cells (Table 8, HL-60/MX2) it was 84% and 89%. Moreover, the “% cytotoxicity, mean ± SD” value with MES-SA/Dx5 cells (Table 7, MES-SA/Dx5) is listed as 92 ± 2%; in the data set on MES-SA cells (Table 7, MES-SA), 94 ± 1%. The “inhibit the trypsin-like activity” value in data set [2] is given as “able to inhibit”. Besides, the “more potent than Omuralide” value in data set [3] (20S proteasome assay EC50 values) is on record as “approximately 40 fold”.

For the compound `C[C@@]12OC(=O)[C@]1([C@@H](O)[C@@H]1C=CCCC1)NC(=O)[C@@H]2CCBr` [Formula II-18], the EC50 with HL-60 cells (setting [4]) is 27 nM; in the data set on HL-60 cells (setting [5]), 23 nM; with MDA-MB-231 cells (MDA-MB-231), 16 ± 2.8 nM; with NCI-H292 cells (setting [8]) it was 29 nM; in the data set on NCI-H292 cells (Table 13, NCI-H292), 41 nM; in the data set with MES-SA cells (setting [9]), 22 nM. In addition, the EC50 in the data set with MES-SA cells (setting [10]) is 17 nM; in data set [1] it was 0.014 µM; in the data set with HL-60/MX2 cells (setting [11]), 19 nM; in the data set on HL-60/MX2 cells (setting [12]), 18 nM; with OVCAR-3 cells (setting [13]), greater than 2000 nM; in the data set with U266 cells (setting [14]), 4.2 nM. Besides, the EC50 in the data set with U266 cells (setting [15]) was found to be 4.2 nM; in [3] (setting [16]), 0.0022 µM. In addition, the Fold change in the data set with MES-SA/Dx5 cells (Table 16) was 1.2 fold; in the data set on HL-60/MX2 cells (Table 17), 0.7 fold. The “inhibit the trypsin-like activity” value in data set [2] is reported as “able to inhibit”.
